Experimental data as given in patent EP3741762A1, “OXALAMIDO-SUBSTITUTED TRICYCLIC INHIBITORS OF HEPATITIS B VIRUS” (priority 2019, dated 2020).
pEC50: −log10 of the molar value.

The molecules below were run on HBV (assay: Anti-HBV activity in vitro: quantification of extracellular HBV DNA by direct qPCR in HepAD38 cells). Settings: Hepatitis B virus, tetracycline-free medium, 96 hours at 37°C, reported as EC50 threshold value, read-out: HBV inh EC50.
Assay type: cell-based
Excerpt: HepAD38 cell line (Ladner et al., Antimicrob Agents Chemother, 1997, 41, 1715-20) was used for HBV inhibition assays. HepAD38 is a subclone, derived from Hepatoblastoma cell line HepG2 (ATCC® Number: HB-8065™), that expresses HBV genome under the transcriptional control of a tetracycline-responsive promoter in a TET-OFF system: addition of tetracycline (TET) or doxycycline suppresses HBV replication, while its removal switches on the process allowing HBV viral particles release in the cell supernatant. HepAD38 cell line is maintained in DMEM/F12, supplemented with 10% of fetal bovine serum, 1% of glutamine, 1% of penicillin/streptomycin, 0.4 mg/ml G418 and 0,3 ug/ml tetracycline. For the HBV inhibition assay, doxycycline-free medium is used in order to allow virion production.
HBV inhibition activity in vitro was performed in 96 multiwell plates. During the initial (primary) screening, compounds were first tested in triplicates at concentrations of 0.02 µM, 0.1 µM, 0.5µM and 1µM. For selected compounds, an 8-point dose-response curve was obtained using 1:2 serial dilutions (starting from 0.01µM, 0.1µM, 0.4µM or 5 µM, depending on the degree of inhibition observed during the primary screening). From the dose-response curves, half maximal effective concentration (EC50) could be calculated (see also below).
In more detail, compounds - typically dissolved in DMSO stock solutions - were diluted to 2x the final desired concentration in 100 µl of the above medium (without doxycycline) and plated in three replicates in the 96-well plates.
Simultaneously, HepAD38 cells - extensively pre-washed in tetracycline-free medium in order to induce HBV production - were suspended at 2^∗10^4 cells in 100 µl of tetracycline-free medium and added to each well of the plate, to yield a final assay volume of 200 µl DMSO - used for stock solutions and compounds dilutions - which was always present in the assays at a final concentration of 0.5%.
Plates were then incubated 96 hours at 37°C and then subjected to cell viability assays and extracellular HBV quantification, in order to evaluate both the cytotoxic potential and the antiviral activity of compounds. Cytotoxicity was assessed by a commercial fluorescence assay that measures the metabolic activity of cells, directly related to cell viability (Cell Titer Blue, Promega). Anti-HBV activity was evaluated by quantification of extracellular HBV DNA with direct qPCR. In particular, supernatant was collected and centrifuged for cell debris clarification, viral DNA was extracted from virions by addition of lysis buffer (1 mM 1,4-dithiothreitol, 0.2% sodium dodecyl sulphate) and incubated at 95°C for 10 min. Samples were then diluted 1:40 and real time PCR amplification was performed with SYBR green assay (Power SYBR™ Green PCR Master Mix-Thermo Fisher Scientific) and specific HBV primer (HBV-DF:5'-[…]-3' (SEQ ID No. 1), HBV-DR:5'-[…]-3' (SEQ ID No.2)).
Antiviral activity data for each compound are reported as EC50 threshold value (see Table 1 legend). Excel and Graphpad Prism programs are typically used for data elaboration and EC50 calculation.
`Cn1cc2c(c1C(=O)Nc1ccc(F)c(Cl)c1)OC[C@@H]1CN(C(=O)C(=O)NC3(C)COC3)C[C@@H]1NS2(=O)=O` [Example E5, (3aR,10aR)-N-(3-chloro-4-fluorophenyl)-7-methyl-2-(2-((3-methyloxetan-3-yl)amino)-2-oxoacetyl)-2,3,3a,4,10,10a-hexahydro-1H,7H-dipyrrolo[3,4-b:3',4'-f][1,4,5] oxathiazocine-8-carboxamide 5,5-dioxide] was tested, and the pEC50 was > 6.30. `Cc1cc(NC(=O)c2c3c(cn2C)S(=O)(=O)N[C@H]2CN(C(=O)C(=O)NCC(C)C)C[C@H]2CO3)ccc1F` [Example E16, (3aR,10aR)-N-(4-fluoro-3-methylphenyl)-2-(2-(isobutylamino)-2-oxoacetyl)-7-methyl-2,3,3a,4,10,10a-hexahydro-1H,7H-dipyrrolo[3,4-b:3',4'-f][1,4,5]oxathiazocine-8-carboxamide 5,5-dioxide] was tested, and the pEC50 was > 6.30. For `Cc1cc(NC(=O)c2c3c(cn2C)S(=O)(=O)N[C@H]2CN(C(=O)C(=O)NC4(C)COC4)C[C@H]2CS3)ccc1F` [Example E42, (3aR,10aR)-N-(4-fluoro-3-methylphenyl)-7-methyl-2-(2-((3-methyloxetan-3-yl)amino)-2-oxoacetyl)-2,3,3a,4,10,10a-hexahydro-1H,7H-dipyrrolo[3,4-c:3',4'-g][1,6,2]dithiazocine-8-carboxamide 5,5-dioxide], the pEC50 was > 6.30. In the case of `Cc1cc(NC(=O)c2c3c(cn2C)S(=O)(=O)N[C@@H]2CN(C(=O)C(=O)N[C@H](C)C(F)(F)F)C[C@]2(C)CO3)ccc1F` (stereo in doubt) [Example E26, Cis-N-(4-fluoro-3-methylphenyl)-7,10a-dimethyl-2-(2-oxo-2-(((R)-1,1,1-trifluoropropan-2-yl)amino)acetyl)-2,3,3a,4,10,10a-hexahydro-1H,7H-dipyrrolo[3,4-b:3',4'-f][1,4,5]oxathiazocine-8-carboxamide 5,5-dioxide], the pEC50 was > 6.30. `Cn1cc2c(c1C(=O)Nc1cc(F)c(F)c(F)c1)OC[C@H]1CN(C(=O)C(N)=O)C[C@H]1NS2(=O)=O` (relative stereo) [Example E13, cis-2-(2-amino-2-oxoacetyl)-7-methyl-N-(3,4,5-trifluorophenyl)-2,3,3a,4,10,10a-hexahydro-1H,7H-dipyrrolo[3,4-b:3',4'-f][1,4,5]oxathiazocine-8-carboxamide 5,5-dioxide] was tested, and the pEC50 was > 6.30. In the case of `Cc1cc(NC(=O)c2c3c(cn2C)S(=O)(=O)N[C@H]2CN(C(=O)C(=O)NC4CC4)C[C@H]2CO3)ccc1F` [Example E8, (3aR,10aR)-2-(2-(cyclopropylamino)-2-oxoacetyl)-N-(4-fluoro-3-methylphenyl)-7-methyl-2,3,3a,4,10,10a-hexahydro-1H,7H-dipyrrolo[3,4-b:3',4'-f][1,4,5]oxathiazocine-8-carboxamide 5,5-dioxide], the pEC50 was > 6.30. `Cc1cc(NC(=O)c2c3c(cn2C)S(=O)(=O)N[C@H]2CN(C(=O)C(=O)NC4(C)COC4)C[C@H]2CO3)ccc1F` [Example E3, (3aR,10aR)-N-(4-fluoro-3-methylphenyl)-7-methyl-2-(2-((3-methyloxetan-3-yl)amino)-2-oxoacetyl)-2,3,3a,4,10,10a-hexahydro-1H,7H-dipyrrolo[3,4-b:3',4'-f][1,4,5]oxathiazocine-8-carboxamide 5,5-dioxide] was tested, and the pEC50 was > 6.30. For `Cc1cc(NC(=O)c2c3c(cn2C)S(=O)(=O)N[C@H]2CN(C(=O)C(=O)N[C@H](C)C(F)(F)F)C[C@H]2CO3)ccc1F` [Example E9, (3aR,10aR)-N-(4-fluoro-3-methylphenyl)-7-methyl-2-(2-oxo-2-(((R)-1,1,1-trifluoropropan-2-yl)amino)acetyl)-2,3,3a,4,10,10a-hexahydro-1H,7H-dipyrrolo[3,4-b:3',4'-f][1,4,5]oxathiazocine-8-carboxamide 5,5-dioxide], the pEC50 was > 6.30.
